Values joined by “and” are separate entries in the source; they are usually repeats but may differ in a detail not shown here. Equal entries are not always repeated.
How the values were obtained:
[1] = target: EGF (epidermal growth factor) (Homo sapiens, UniProt P01133); experiment: Binding to EGF by gel electrophoresis
[2] = target: IGF-1 (insulin-like growth factor-1) (Homo sapiens, UniProt P05019); experiment: Binding to IGF-1 by gel electrophoresis
EGF = target: T1, EGF (Homo sapiens, UniProt P01133); experiment: Inhibition of [125I]-EGF binding to NIH 3T3 cells overexpressing EGFR; conditions: 10 μM
T1 construct: host or cells: NIH 3T3 cells overexpressing EGFR carry the receptor
T1 sequence (P01133 971-1023 limits assumed, species assumed): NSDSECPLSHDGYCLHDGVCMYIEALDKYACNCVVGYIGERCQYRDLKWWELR
Experimental: (§1) NIH 3T3 (PDGF) or NIH 3T3 cells overexpressing either EGFR (EGF), IGFR (IGF) or Flk-1 (VEGF), are incubated with [^125I]-PDGF, [^125I]-EGF, [^125I]-IGF or [^125I]-VEGF, respectively (50,000 cpm per well) and increasing concentrations of GFB-111 or GFB-116. Cells are incubated at 4° C. for 1-3 h. After discarding media, the cells are washed 3 times with PBS and three times with Tris 25 mM pH 8.0, 1% T-X-100, 10% glycerol, 1% SDS. Lysates plus wash are counted. Excess of cold growth factors is used to obtain non-specific binding levels.
(§2) Whether GFB 111 can block [^125I]-PDGF-BB specific binding in NIH 3T3 cells is determined by pre-treatment of the PDGF-BB with increasing concentrations of GFB-111. FIG. 2C illustrates that in the absence of GFB-111, [^125I]-PDGF-BB is bound by NIH3T3 cells. However, pre-treatment with increasing concentrations of GFB-111, results in a concentration-dependent decrease in PDGF-BB binding.

VEGF = target: T2, VEGF (Homo sapiens, UniProt P15692); experiment: Inhibition of [125I]-VEGF binding to NIH 3T3 cells overexpressing VEGFR (Flk-1)
T2 construct: host or cells: NIH 3T3 cells overexpressing Flk-1 carry the receptor
T2 sequence (P15692 27-191 isoform P15692-4, species assumed): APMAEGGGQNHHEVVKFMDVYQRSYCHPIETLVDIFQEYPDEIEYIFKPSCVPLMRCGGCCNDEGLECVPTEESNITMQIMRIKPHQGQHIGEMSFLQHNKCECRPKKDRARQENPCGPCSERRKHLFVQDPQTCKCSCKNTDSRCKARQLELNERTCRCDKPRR
Experimental: as §1, §2

[3] = system: bFGF-activation of Erk1/Erk2; experiment: bFGF activation of Erk1/Erk2 in NIH 3T3 cells; type: cell-based; conditions: concentrations as high as 100 μM
Experimental: In other experiments, starved NIH 3T3 cells (PDGF-AA, PDGF-BB, aFGF, bFGF), NIH 3T3 cells overexpressing EGFR. IGF-1R or Flk-1 and the human breast carcinoma SkBr3 that overexpresses ErbB2 (HRGβ) are pretreated with GFB-111 (100 μM) for 5 min before 10 min stimulation with the indicated growth factors at the concentrations shown above and aFGF (10 ng/ml), bFGF (50 ng/ml), IGF-1 (50 ng/ml) and HRGβ (10 ng/ml). Cell lysates are then immunoblotted with anti-phospho Erk1/Erk2 as described above.

[4] = system: PDGF-BB stimulated DNA synthesis in NIH 3T3 cells; type: cell-based; conditions: 3 h
Experimental: (§3) Starved NIH 3T3 or NIH 3T3 overexpressing IGFR are treated for 16 hours with indicated concentrations of GFB-111 and either 10 ng/ml PDGF or 50 ng/ml IGF-1, respectively, then labeled for 2 hr (NIH 3T3) or 4 hr (IGFR) with ^3H-thymidine. Cells are then washed in PBS, lysed in 0.1N NaOH and spotted onto glass fiber filters. DNA is precipitated with ice cold ethanol then ^3H-thymidine incorporation quantified by scintillation counting.
(§4) The selectivity of PDGF-induced cellular responses, is evaluated by the selectivity of GFB-111 to inhibit growth factor-stimulated DNA synthesis using a [^3H]-thymidine incorporation assay. […] In contrast GFB-111 is ineffective at inhibiting IGF-1-stimulated DNA synthesis at concentrations as high as 100 μM (FIG. 4).

[5] = system: IGF-1-stimulated DNA synthesis; experiment: IGF-1-stimulated DNA synthesis ([3H]-thymidine incorporation) in NIH 3T3 overexpressing IGFR; type: cell-based; conditions: concentrations as high as 100 μM
Experimental: as §3, §4

rat glioma C6 = experiment: Antitumor efficacy, C6 tumor in nude mice; type: in vivo
[6] = system: human medulloblastoma DaOY; experiment: Antitumor efficacy, DaOY xenograft in nude mice; type: in vivo; conditions: 50 mg per kg per day
[7] = system: Erk1/Erk2 activation in U87MG tumors; experiment: Phosphorylated/activated Erk1/Erk2 in U87MG tumors in vivo; parameters: species or system nude mice; conditions: day 32, 100 and 200 mg per kg
Experimental: U87MG cells (human glioblastoma) are harvested, resuspended in PBS and injected s.c. into the right and left flank (10×10^6 cells per flank) of 8 week old female nude mice (Charles River, Wilmington, Mass.). When tumors reached about 100 mm^3, animals are dosed i.p. with 0.2 ml once daily. Control animals received a saline vehicle whereas treated animals are injected with GFB-111 (50, 100 or 200 mg/kg/day). The tumor volumes are determined by measuring the length (l) and the width (w) and calculating the volume (V=lw^2/2) as described previously. For detection of phosphorylated/activated Erk1/Erk2 in tumors in vivo, the tumors are extracted 20 min after the last GFB-111 injection on day 32, rinsed and the tissue homogenized in HEPES lysis buffer (30 mM Hepes, pH 7.5, 1% T-X-100, 10% glycerol, 10 mM NaCl, 5 mM MgCl2, 25 mM NaF, 1 mM EGTA, 2 mM Na3VO4, 10 μg/ml trypsin inhibitor, 25 μg/ml leupeptin, 10 μg/ml aprotinin, 2 mM PMSF). The lysates (50-100 μg) are electrophoresed on a 15% SDS-PAGE, transferred to nitrocellulose membranes and immunoblotted, with anti-phospho-p44/p42 MAPK (Thy202/Tyr204).

[8] = system: angiogenesis in U87-MG tumors; experiment: Angiogenesis: Factor VIII immunostaining and microvessel count in U87MG tumors; type: in vivo, nude mice; conditions: for Microvessel count (Mean ± SD) 250X / Microvessel count (Mean ± SD) 400X: U87-MG tumor
Experimental: (§5) On the indicated termination day of each nude mouse experiment described above, (see also Table 2), the tumors are extracted and half frozen at −70° C., and half is fixed in 10% neutral buffered formalin for 6 hrs. After fixation the tissue samples are processed into paraffin blocks. Four micrometer-thick tissue sections are obtained from the paraffin blocks and stained with hematoxylin and eosin (H&E) (Richard-Allan Scientific, Kalamazoo, Mich.) using standard histologic techniques. Tissue sections are also subjected to immunostaining for Factor VIII using the avidin biotin peroxidase complex technique (Vectastatin Elite ABC Kit, Vector, Burlingame, Calif.). Rabbit polyclonal FVIII antibody (Von Willebrand Factor, Dako Corporation, Carpinteria, Calif.) is used at 1:400 dilution, following microwave antigen retrieval (4 cycles of 5 minutes each on high in 0.1M citrate buffer).

[9] = system: angiogenesis in C6 tumors; experiment: Angiogenesis: microvessel count in C6 tumors; type: in vivo, nude mice
Experimental: as §5

[10] = system: angiogenesis in DaOY tumors; experiment: Angiogenesis: microvessel count in DaOY tumors; type: in vivo, nude mice
Experimental: as §5

IGF-1 (insulin-like growth factor-1), sequence (P05019 49-118 limits assumed, species assumed): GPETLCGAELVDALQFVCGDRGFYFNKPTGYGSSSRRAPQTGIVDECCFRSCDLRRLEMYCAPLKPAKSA
EGF (epidermal growth factor), sequence (P01133 971-1023 limits assumed, species assumed): as the sequence (P01133 971-1023 limits assumed, species assumed) above

`CCCCOc1c2cc(C(=O)Nc3cc4cc(c3)C(=O)NCC(=O)N[C@@H](CC(=O)O)C(=O)NCC(=O)N[C@@H](Cc3ccc(O)cc3)C(=O)NC4)cc1Cc1cc(C(=O)Nc3cc4cc(c3)C(=O)NCC(=O)N[C@@H](CC(=O)O)C(=O)NCC(=O)N[C@@H](Cc3ccc(O)cc3)C(=O)NC4)cc(c1OCCCC)Cc1cc(C(=O)Nc3cc4cc(c3)C(=O)NCC(=O)N[C@@H](CC(=O)O)C(=O)NCC(=O)N[C@@H](Cc3ccc(O)cc3)C(=O)NC4)cc(c1OCCCC)Cc1cc(C(=O)Nc3cc4cc(c3)C(=O)NCC(=O)N[C@@H](CC(=O)O)C(=O)NCC(=O)N[C@@H](Cc3ccc(O)cc3)C(=O)NC4)cc(c1OCCCC)C2` [GFB-111] was tested, and the “Binding to EGF” value [1] was “does not bind”, the “Binding to IGF-1” value [2] was “does not bind” and the “Effect on [125I]-EGF binding” value (EGF) was “lack of significant effects”. For the same compound, the inhibition at 10 µM (VEGF) was 50%, the “bFGF-activation of Erk1/Erk2” value [3] was “minimally affected” and the IC50 [4] was 6.5 µM. The “Inhibition of IGF-1-stimulated DNA synthesis” value [5] was “ineffective”, the “% Tumor growth inhibition” value (rat glioma C6; C6, 50 mpk, day in parentheses in cell) was 54% (15) and 64% (15) and 46% (18) and the “Inhibition of C6 tumor growth in nude mice” value (rat glioma C6; mouse, in vivo) was “effective”. For the same compound, the “Growth of DaOY tumors” value [6] was “minimally affected”, the “Erk1/Erk2 activation in the tumors” value [7] was “blocked” and the “Microvessel count (Mean ± SD) 250X” value ([8]; 100 mpk) was 7.73 ± 2.61. The “Microvessel count (Mean ± SD) 400X” value ([8]; 100 mpk) was 5.20 ± 1.71, the “Microvessel count (Mean ± SD) 250X” value ([8]; 200 mpk) was 5.13 ± 3.10 and the “Microvessel count (Mean ± SD) 400X” value ([8]; 200 mpk) was 3.07 ± 1.94. The “Inhibition of angiogenesis” value ([8]; U87MG tumors) was “strongly”, the “Factor VIII immunostaining in tumors” value ([8]; U87MG, day 32, 50, 100 and 200 mg per kg) was “decreased in a dose-dependent manner” and the “Microvessel count (Mean ± SD) 250X” value ([9]; C6 tumor, 50 mpk) was 14.27 ± 4.79. For the same compound, the “Microvessel count (Mean ± SD) 400X” value ([9]; C6 tumor, 50 mpk) was 7.97 ± 2.83, the “Inhibition of angiogenesis” value ([9]; C6 tumors) was “to a lesser degree” and the “Microvessel count (Mean ± SD) 250X” value ([10]; DaOY tumor, 50 mpk) was 7.20 ± 2.52. For the same compound, the “Microvessel count (Mean ± SD) 400X” value ([10]; DaOY tumor, 50 mpk) was 4.80 ± 1.37 and the “Inhibition of angiogenesis” value ([10]; DaOY tumors) was “no effect”.

Reference: patent US8361970B2, “Growth factor binding molecules” (University of South Florida, priority 2000, dated 2013)
